Like-named read-outs stand apart in the source and are kept apart here.
Columns and labels:
LIN28–let-7 interaction [1] = molecular target: T1, LIN28–let-7 interaction (Homo sapiens, UniProt Q9H9Z2); assay: Fluorescence polarization (FP) assay, LIN28A (residues 16–187) and FAM-labeled preE-let-7f-1; format: binding; conditions: text and figures; C-labels = library sample, PH-labels = in-house resynthesized; read-out: IC50 in the FP assay
T1 construct: Purified LIN28A (residues 16–187) was incubated at a concentration of 200 nM; His-tag (cleaved yes); made in house; host or cells: Escherichia coli BL21(DE3)
T1 sequence (Q9H9Z2 16-187): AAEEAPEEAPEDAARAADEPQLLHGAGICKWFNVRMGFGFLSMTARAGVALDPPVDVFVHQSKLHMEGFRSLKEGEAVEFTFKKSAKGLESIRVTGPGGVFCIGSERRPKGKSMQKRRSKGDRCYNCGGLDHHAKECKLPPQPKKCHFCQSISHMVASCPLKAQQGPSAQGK
Description: Protein expression and purification.
19 vector and overexpressed in Escherichia coli BL21(DE3). The culture was incubated at 37 °C until
the absorbance at 600 nm (OD600) reached 0.5–0.7. IPTG was added to a final concentration of
300 µM, and overnight induction was performed at 18 °C. Cells were harvested by centrifugation.
The bacterial pellet was resuspended in lysis buffer (50 mM NaH2PO4, pH 7.5, 300 mM NaCl,
0.1 mM PMSF) and lysed using a Microfluidizer (Microfluidics) . A fresh portion of 0.1 mM PMSF
and Triton X-100 (1% final concentration) were added. The lysate was cleared by ultra centrifugation
at 30000 xg and 4 °C for 1 h. The protein purification was performed using immobilized nickel
300 mM NaCl and 5 % glycerol. Gradient elution was performed with a maximum of 0.5 M imidazole.
Subsequently, the affinity tag was cleaved using His6 -TEV-protease and the protease and unspecific
binders were eliminated by a second nickel affinity chromatography. After protein concentration
LIN28A containing fractions were concentrated and applied to a High Load Superdex 75 pg 16/600
column (GE Healthcare) with gel-filtration buffer (30 mM NaH2PO4, pH 7.5, 50 mM NaCl, 5%
glycerol, 2 mM β-ME). The purified protein was concentrated and stored at -80 °C until further
Fluorescence polarization. The fluorescence polarization assay was performed in black low volume
IC50 measurements were performed with three technical
minutes with compound concentrations ranging from 0.3 nM to 100 µM in FP assay buffer (20 mM
Tris, pH 7, 100 mM NaCl, 5 mM MgCl2, 2 mM glutathione (reduced), 0.1 % NP-40). Subsequently,
FAM-labeled preE-let-7f-1 (mus musculus) ([…]-
FAM, synthesized by IDT) was added to a final concentration of 2 nM. Fluorescence polarization
was detected after incubation at room temperature using a TECAN Spark plate reader. Half maximal
inhibitory concentrations (IC50) were determined using GraphPad Prism 7. […]

LIN28–let-7 interaction [2] = molecular target: T1, LIN28–let-7 interaction; assay: as above; format: binding; conditions: for FP, Average (mP): raw data Table S3, four replicates
[3] = molecular target: T2, cold-shock domain of LIN28A (Homo sapiens, UniProt Q9H9Z2); assay: Fluorescence quenching binding assay
T2 construct: cold shock domain construct LIN28 A (residues 16– 126)
T2 sequence (Q9H9Z2 16-126): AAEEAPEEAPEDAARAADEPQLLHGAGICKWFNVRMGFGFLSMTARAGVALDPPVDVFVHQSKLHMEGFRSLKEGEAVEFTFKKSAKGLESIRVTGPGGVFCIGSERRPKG
From the text: Figure S5. Fluorescence quenching assay measuring binding of PH-31 to the cold-shock domain of
(1 picture or pasted object on this page, not shown here)

O=C(C1=C(O)C(=O)N(c2ccc(O)c(C(=O)O)c2)C1c1ccc(-c2nccs2)cc1)c1ccc(Br)cc1 (centres unmarked) [C902/PH-31]
IC50 (LIN28–let-7 interaction [1]): 18 µM | IC50 (LIN28–let-7 interaction [2]; Table 1, quadruplicate, starting from a maximum concentration of 60 μM, eight concentrations, read-out: IC50, LIN28–let-7 inhibitory activity): 5 µM | FP, Average (mP) (LIN28–let-7 interaction [2]; 0.041 μM compound): 109.25 mP | FP, Average (mP) (LIN28–let-7 interaction [2]; 0.123 μM compound): 110.00 mP | FP, Average (mP) (LIN28–let-7 interaction [2]; 0.368 μM compound): 113.50 mP | FP, Average (mP) (LIN28–let-7 interaction [2]; 1.103 μM compound): 105.75 mP | FP, Average (mP) (LIN28–let-7 interaction [2]; 3.125 μM compound): 75.05 mP | FP, Average (mP) (LIN28–let-7 interaction [2]; 9.375 μM compound): 64.03 mP | FP, Average (mP) (LIN28–let-7 interaction [2]; 29.688 μM compound): 43.05 mP | FP, Average (mP) (LIN28–let-7 interaction [2]; 59.375 μM compound): 38.75 mP | Kd [3]: 16.5 ± 2.8 µM
